Reference: patent publication US20040198981A1, “Tricyclic dihydroquinoline derivatives,method for preparing same and pharmaceutical compositions containing same” (priority 2001, published 2004)

Tested on: murine leukaemia, L1210
Experiment: In vitro cytotoxicity, Microculture Tetrazolium Assay
Format: cell-based
Conditions: Mus musculus, 48 h; L1210 cells, incubated for 2 days; read-out: IC50 (concentration of cytotoxic agent which inhibits proliferation of the treated cells by 50%)
Method: Three cell lines were used:
1 murine leukaemia, L1210,
1 human non-small-cell lung carcinoma, A549,
1 human colon carcinoma, HT29.
The cells are cultured in RPMI 1640 complete culture medium containing 10% foetal calf serum, 2 mM glutamine, 50 units/ml of penicillin, 50 μg/ml of streptomycin and 10 mM Hepes, pH=7.4. The cells are distributed on microplates and are exposed to the cytotoxic compounds. The cells are then incubated for 2 days (L1210) or 4 days (A549, HT29). The number of viable cells is then quantified by a colorimetric assay, the Microculture Tetrazolium Assay (Cancer Res. 1987, 47, 939-942).

COc1cc(C2C3=C(COC3=S)N(Cc3ccccc3)c3cc4c(cc32)OCO4)cc(OC)c1OC (stereo not shown) [Example 5, 4-Benzyl-6,7-methylenedioxy-9-(3,4,5-trimethoxyphenyl)-4,9-dihydrofuro[3,4-b]quinoline-1(3H)-thione]
IC50: 190 nM
